The source of these data is ChEMBL document CHEMBL1649364, “Synthesis and antifungal activity of some substituted phenothiazines and related compounds” (2011).

In experiment [1] the test system is Meyerozyma guilliermondii. Briefly: Antifungal activity against Candida guilliermondii by microdilution test. The experiment is classed as functional.
Experiment [2] deals with Exophiala spinifera. Briefly: Antifungal activity against Exophiala spinifera by microdilution test. The format is functional. Background: Broth dilution looks for growth in wells or tubes with falling amounts of substance.
Experiment [3] is described as follows: Antifungal activity against Exophiala xenobiotica by microdilution test. The format is functional.
Experiment [4] has as its system Nakaseomyces glabratus. Briefly: Antifungal activity against Candida glabrata by microdilution test. The experiment is classed as functional.
Experiment [5] deals with Pichia kudriavzevii. Description: Antifungal activity against Candida krusei by microdilution test. The experiment is classed as functional.
Experiment [6] concerns Aspergillus terreus. Briefly: Antifungal activity against Aspergillus terreus by microdilution test. The format is functional.
The test system of experiment [7] is Aspergillus niger. Briefly: Antifungal activity against Aspergillus niger by microdilution test. The format is functional.
Experiment [8] in a line: Antifungal activity against Aspergillus fumigates by microdilution test. The format is functional.
For experiment [9], the system named is Cryptococcus neoformans. Description: Antifungal activity against Cryptococcus neoformans by microdilution test. The format is functional.
Experiment [10] concerns Aspergillus flavus. Description: Antifungal activity against Aspergillus flavus by microdilution test. The format is functional.
For experiment [11], the system named is Candida albicans. Description: Antifungal activity against Candida albicans by microdilution test. The format is functional.
For experiment [12], the system named is Candida parapsilosis. Briefly: Antifungal activity against Candida parapsilosis by microdilution test. The experiment is classed as functional. The settings on record: for MIC: Lodderomyces parapsilosis.
The nature of experiment [13]: Antifungal activity against Exophiala oligosperma by microdilution test. The format is functional.
Experiment [14] can be described thus: Antifungal activity against Cladophialophora carrionii by microdilution test. The experiment is classed as functional.
Experiment [15] has as its system Aspergillus nidulans. Briefly: Antifungal activity against Aspergillus nidulans by microdilution test. The format is functional, organism-based.

Values after ≈ are worked out from the molar mass of the structure shown. Active and inactive are the calls of the source. The rule behind the calls is not given here.

Take `OC(Cn1cncn1)(Cn1cncn1)c1ccc(F)cc1F` [FLUCONAZOLE]: the minimal inhibitory concentration (MIC) amounted to 4 µg/mL (≈ 13.1 µM) in experiment [1]; 16 µg/mL (≈ 52.2 µM) in experiment [2]; 16 µg/mL (≈ 52.2 µM) in experiment [3]; 1 µg/mL (≈ 3.27 µM) in experiment [4]; 64 µg/mL (≈ 209 µM) in experiment [5]; 16 µg/mL (≈ 52.2 µM) in [6]. The minimum inhibitory concentration (MIC) was 16 µg/mL (≈ 52.2 µM) in [7]; 16 µg/mL (≈ 52.2 µM) in experiment [8]; 8 µg/mL (≈ 26.1 µM) in experiment [9]; 16 µg/mL (≈ 52.2 µM) in experiment [10]; 2 µg/mL (≈ 6.53 µM) in experiment [11]; 1 µg/mL (≈ 3.27 µM) in experiment [12].

On to `CN(C)S(=O)(=O)c1ccc2c(c1)N(CCCN1CCC(CCO)CC1)c1ccccc1S2` [PIPOTIAZINE], for which the minimal inhibitory concentration (MIC) in experiment [1] was determined as 256 µg/mL (≈ 538 µM); in experiment [2], 256 µg/mL (≈ 538 µM); in experiment [13] it was 512 µg/mL (≈ 1080 µM); in experiment [3] it was 512 µg/mL (≈ 1080 µM); in experiment [4] it was 256 µg/mL (≈ 538 µM); in experiment [5], 512 µg/mL (≈ 1080 µM). In addition, the minimum inhibitory concentration (MIC) in experiment [6] was above 512 µg/mL; in experiment [7], above 512 µg/mL; in experiment [8] it was above 512 µg/mL; in [9], 256 µg/mL (≈ 538 µM); in experiment [14] it was 256 µg/mL (≈ 538 µM); in experiment [10] it was above 512 µg/mL. Moreover, the MIC in [11] and in [12] was 256 µg/mL (≈ 538 µM) throughout.

With `O=C(CCCl)N1c2ccccc2Sc2ccccc21`, the result in [1], in experiment [2], in experiment [13], in [3], in experiment [15] and in experiment [4] was inactive. The result in experiment [5], in experiment [6], in experiment [7], in experiment [8], in experiment [9] and in experiment [14] was inactive. Besides, the result in experiment [10], in [11] and in experiment [12] was inactive.

On to `CN(C)S(=O)(=O)c1ccc2c(c1)N(C(=O)CCl)c1ccccc1S2`, for which the outcome in experiment [1], in experiment [2], in experiment [13], in experiment [3], in [15] and in experiment [4] was inactive. Besides, the result in experiment [5], in experiment [6], in experiment [7], in [8], in experiment [9] and in [14] was inactive. In addition, the result in experiment [10], in experiment [11] and in [12] was inactive.

Take `O=C(CCl)Nc1ccccc1Sc1ccccc1`: the result in [1], in experiment [2], in experiment [13], in experiment [3], in experiment [15] and in experiment [4] was inactive. Moreover, the outcome in experiment [5], in experiment [6], in [7], in experiment [8], in [9] and in experiment [14] was inactive. In addition, the outcome in experiment [10], in experiment [11] and in experiment [12] was inactive.

For `O=C(CCl)N1c2ccccc2Oc2ccccc21`, the outcome in [1], in [2], in [13], in experiment [3], in experiment [15] and in experiment [4] was inactive. Also, the outcome in [5], in [6], in [7], in experiment [8], in experiment [9] and in experiment [14] was inactive. Further, the result in [10], in [11] and in [12] was inactive.

In the case of `ClCCCN1c2ccccc2Sc2ccccc21`, the outcome in [1], in experiment [2], in experiment [13], in experiment [3], in experiment [15] and in [4] was inactive. Further, the outcome in experiment [5], in experiment [6], in [7], in [8], in experiment [9] and in experiment [14] was inactive. Moreover, the result in [10], in [11] and in experiment [12] was inactive.

With `Nc1nc(=O)[nH]cc1F` [FLUCYTOSINE], the minimal inhibitory concentration (MIC) in experiment [1] worked out at 1 µg/mL (≈ 7.75 µM); in [2] it was 2 µg/mL (≈ 15.5 µM); in experiment [13], 4 µg/mL (≈ 31 µM); in experiment [3], 8 µg/mL (≈ 62 µM); in experiment [4], 1 µg/mL (≈ 7.75 µM); in experiment [5], 0.5 µg/mL (≈ 3.87 µM). In addition, the MIC in experiment [6] stood at 1 µg/mL (≈ 7.75 µM); in [7], 0.5 µg/mL (≈ 3.87 µM); in [8], 0.5 µg/mL (≈ 3.87 µM); in experiment [9], 0.5 µg/mL (≈ 3.87 µM); in experiment [14], 1 µg/mL (≈ 7.75 µM); in experiment [10], 1 µg/mL (≈ 7.75 µM). The MIC in [11] was determined as 2 µg/mL (≈ 15.5 µM); in experiment [12], 0.5 µg/mL (≈ 3.87 µM).

For `CN(C/C=C/C#CC(C)(C)C)Cc1cccc2ccccc12` [TERBINAFINE], the minimum inhibitory concentration (MIC) in [1] amounted to 0.5 µg/mL (≈ 1.72 µM); in experiment [2], 0.06 µg/mL (≈ 0.206 µM); in [13], 0.06 µg/mL (≈ 0.206 µM); in [3], 0.06 µg/mL (≈ 0.206 µM); in experiment [4], 0.06 µg/mL (≈ 0.206 µM); in [5], 0.06 µg/mL (≈ 0.206 µM). Moreover, the MIC in [6] was 0.06 µg/mL (≈ 0.206 µM); in [7], 0.125 µg/mL (≈ 0.429 µM); in experiment [8], 0.25 µg/mL (≈ 0.858 µM); in experiment [9], 0.25 µg/mL (≈ 0.858 µM); in experiment [14] it was 0.25 µg/mL (≈ 0.858 µM); in experiment [10], 0.25 µg/mL (≈ 0.858 µM). The values for the minimal inhibitory concentration (MIC) in experiment [11] and in experiment [12] were 0.5 µg/mL (≈ 1.72 µM) and 0.06 µg/mL (≈ 0.206 µM), respectively.

For `CN(C)S(=O)(=O)c1ccc2c(c1)N(C(=O)CCCl)c1ccccc1S2`, the result in [1], in [2], in [13], in [3], in [15] and in [4] was inactive. Also, the outcome in [5], in experiment [6], in experiment [7], in [8], in [9] and in [14] was inactive. In addition, the result in experiment [10], in [11] and in [12] was inactive.

As for `CC(CN1c2ccccc2Sc2ccccc21)N(C)C` (configuration not stated) [PROMETHAZINE], the MIC in experiment [1] was 512 µg/mL (≈ 1800 µM); in experiment [2], 256 µg/mL (≈ 900 µM); in [13] it was 256 µg/mL (≈ 900 µM); in experiment [3], 256 µg/mL (≈ 900 µM); in [4], above 512 µg/mL; in experiment [5], 256 µg/mL (≈ 900 µM). Further, the minimum inhibitory concentration (MIC) in [6] is 256 µg/mL (≈ 900 µM); in [7] it was 256 µg/mL (≈ 900 µM); in experiment [8], 256 µg/mL (≈ 900 µM); in [9], 256 µg/mL (≈ 900 µM); in [14], 512 µg/mL (≈ 1800 µM); in experiment [10], 256 µg/mL (≈ 900 µM). Also, the MIC in experiment [11] was above 512 µg/mL; in experiment [12] it was 512 µg/mL (≈ 1800 µM).

Regarding `C[C@@H]1[C@H](O)[C@@H](C)/C=C/C=C/C=C/C=C/C=C/C=C/C=C/[C@H](O[C@@H]2O[C@H](C)[C@@H](O)[C@H](N)[C@@H]2O)C[C@@H]2O[C@](O)(C[C@@H](O)C[C@@H](O)[C@H](O)CC[C@@H](O)C[C@@H](O)CC(=O)O[C@H]1C)C[C@H](O)[C@H]2C(=O)O` [AMPHOTERICIN B], the MIC is 1 µg/mL (≈ 1.08 µM) in experiment [1]; 1 µg/mL (≈ 1.08 µM) in [2]; 1 µg/mL (≈ 1.08 µM) in experiment [3]; 0.25 µg/mL (≈ 0.271 µM) in experiment [4]; 0.25 µg/mL (≈ 0.271 µM) in experiment [5]; 2 µg/mL (≈ 2.16 µM) in experiment [6]. Besides, the MIC in experiment [7] was found to be 0.5 µg/mL (≈ 0.541 µM); in experiment [8], 0.5 µg/mL (≈ 0.541 µM); in experiment [10], 0.25 µg/mL (≈ 0.271 µM); in experiment [11], 0.5 µg/mL (≈ 0.541 µM); in experiment [12] it was 0.5 µg/mL (≈ 0.541 µM).

Regarding `CCC(C)n1ncn(-c2ccc(N3CCN(c4ccc(OCC5COC(Cn6cncn6)(c6ccc(Cl)cc6Cl)O5)cc4)CC3)cc2)c1=O` (configuration not stated) [ITRACONAZOLE], the MIC in [1] was found to be 0.5 µg/mL (≈ 0.709 µM); in [2] it was 0.06 µg/mL (≈ 0.085 µM); in experiment [13], 0.125 µg/mL (≈ 0.177 µM); in [3], 0.06 µg/mL (≈ 0.085 µM); in experiment [4], 0.25 µg/mL (≈ 0.354 µM); in [5], 0.06 µg/mL (≈ 0.085 µM). The MIC in experiment [6] came out at 0.125 µg/mL (≈ 0.177 µM); in experiment [7], 0.125 µg/mL (≈ 0.177 µM); in [8], 0.25 µg/mL (≈ 0.354 µM); in experiment [9] it was 0.25 µg/mL (≈ 0.354 µM); in experiment [14], 0.06 µg/mL (≈ 0.085 µM); in experiment [10] it was 0.125 µg/mL (≈ 0.177 µM). The MIC in experiment [11] and in experiment [12] was 0.125 µg/mL (≈ 0.177 µM) in each case.

`O=C(CCl)N1c2ccccc2Sc2ccccc21`: the MIC was 32 µg/mL (≈ 116 µM) in experiment [1]; 16 µg/mL (≈ 58 µM) in experiment [2]; 16 µg/mL (≈ 58 µM) in [13]; 16 µg/mL (≈ 58 µM) in [3]; above 512 µg/mL in experiment [4]; 32 µg/mL (≈ 116 µM) in experiment [5]. For the same molecule, the MIC in experiment [6] amounted to 16 µg/mL (≈ 58 µM); in [7], 2 µg/mL (≈ 7.25 µM); in [8], 16 µg/mL (≈ 58 µM); in experiment [9], 8 µg/mL (≈ 29 µM); in experiment [14] it was 4 µg/mL (≈ 14.5 µM); in [10] it was 32 µg/mL (≈ 116 µM). The MIC in experiment [11] and in experiment [12] was 32 µg/mL (≈ 116 µM) each time.

A word on the MIC: it is the lowest concentration that inhibits growth of the organism. A high value points to a less susceptible organism.
